Key:
sickling = conditions: literature: Inserm Symposium 1979; in words; cited from earlier work
[1] = tested on: red cells of subjects suffering from drepanocytosis; experiment: Inhibition of sickling of human red blood corpuscules of subjects suffering from drepanocytosis; type: cell-based; conditions: pH 7.40, one hour at 37° C.
Description: Inhibition of the sickling of human red blood corpuscules was assessed by washing and incubating, in a saline buffer (pH: 7.40; 0.15M) for one hour at 37° C., the red cells of subjects suffering from drepanocytosis. This operation was carried out in a water-bath under stirring and in the presence of a compound of the invention used at different concentrations. The molar ratios between the compound of the invention and the haemoglobin were initially tested at intervals ranging from 0.5 to 20, the mM concentration in haemoglobin being 0.5 in each case and the ratio being modified according to the results obtained.
At the end of incubation, the excess of the product being tested was removed by washing and the cellular suspension adjusted so as to form a haematocrit of 5% was transferred to an Erlenmeyer flask and incubated at 37° C. under a current comprising a humidified mixture of nitrogen and oxygen the oxygen concentration being regulated by a gas-mixing pump. The effluent gas was then transferred to another tube containing formaldehyde and, at the end of incubation, the cellular suspension was transferred to the formaldehyde by merely turning the flask upside down.
The proportion of deformed cells and those having the characteristics of drepanocytes (having two filiform extensions) was assessed with the aid of a microscope having a NORMARSKY interferential optical system. Inhibition of sickling was calculated according to the following formula: [formula]
The following results were obtained with representative compounds of the present invention in comparison with cystamine.

Structure (SMILES)	inhibiting sickling (sickling)	% inhibition of sickling of the red blood corpuscles ([1]; 5 mmolar)	% inhibition of sickling of the red blood corpuscles ([1]; 1 mmolar)	% inhibition of sickling of the red blood corpuscles ([1]; 0.5 mmolar)
NCCSSCCN [Cystamine, cystamine, reference compound]	particularly active	33%		
Cc1ccc(S(=O)(=O)Sc2nnc(N)s2)cc1 [5-amino-1,3,4-thiadiazol-2-yl p-toluenethiosulfonate]			33%	
Cc1ccc(S(=O)(=O)Sc2ncc[nH]2)cc1 [1H-imidazol-2-yl p-toluenethiosulfonate]			100%	50%

— patent publication US4696937A, “Thiosulfonate derivatives for inhibiting malformation or destruction of red blood corpuscules” (Sanofi, priority 1984, dated 1987)
